Experimental data: patent US20220127297A1, “Novel Antibacterial 3"-Derivatives Of 4,6-Disubstituted 2,5-Dideoxystreptamine Aminoglycoside Antibiotics” (AGILeBiotics B.V., priority 2018, published 2022)
≈ marks a conversion by molar mass, not a printed value. Where two headings read alike, the source gives them in different places.

Tested on: E. faecalis DSM 2570
Experiment: MIC 50, broth micro-dilution, DSM strains
Assay type: cell-based, Enterococcus faecalis
Source text: 3.2 Against Selected Bacteria of the ESKAPE Panel and Enterococcus faecalis (DSM Strains)
Tested reference compounds. Amikacin sulfate (Cat. No. 01693, Chem-Impex), Gentamicin sulfate (Cat. No. G4918, Sigma Aldrich).
Microbial strains. Enterococcus faecalis DSM 2570, Klebsiella pneumoniae DSM 26371, Acinetobacter baumannii DSM 105126, Enterobacter cloacae 3MRGN (clinical bronchial aspirate isolate).
Culture media and equipment. BBL™ Mueller Hinton Broth 2 (Lot. BCBW1143, Cat. No. 70192, Sigma); Trypcase Soy Blood-agar plates (Cat. No. 43001, Biomérieux); Cryoinstant (contains 15% glycerol; Cat. No. 822070ZA, VWR International); GasPak™ EZ Standard Incubation Container (Cat. No. 260671, Becton Dickinson); GasPak™ EZ Campy Container System Sachets (Cat. No. 260680, Becton Dickinson); 96-well deep well plate, 1 mL (Cat. No. 0030506.200, Eppendorf); Plate lid (Cat. No. 0030131.525, Eppendorf); 96-well plate, F-bottom (Cat. No. 260860, Nunc); Incubator (Sartorius Certomat BS-1); Laminar flow (Heraeus HS12); UV/VIS meter (Perkin Elmer Lambda Bio+); Platereader (Tecan Infinite M200 Pro).
Compound preparation. Compounds were prepared in MH2 media at a concentration of 5 mM and stored at 4° C. For testing, solutions of 128 μM were prepared in MH2, for tests against E. faecalis a solution of 512 μM was prepared. Out of these working solutions, 400 μL was transferred to wells in the first column of 96-well deep well plates. Each compound was transferred in triplicate. Plates were previously filled with 200 μL of MH2 media in all wells except for the wells in the first column. After compound and antibiotic addition, the compounds were serial two-fold diluted by transferring 200 μL from the first to the second column, then from the second to the third column and so on. Finally, 200 μL was removed from the last column.
Inoculum preparation. Microorganisms used were all revived from 15% glycerol storage in Croinstant tubes at −28° C. by plating them on blood agar plates. A. baumanni, and E. cloacae were grown aerobically at 37° C., E. faecalis was grown microaerophilically at 37° C., and K. pneumoniae was grown aerobically at 37° C. Plates were stored at 4° C. for up to two weeks, after which new plates were prepared from −28° C. A single colony was inoculated in MH2 media and grown at 37° C. and 200 rpm to an optical density (measured by UV/Vis spectroscopy) of 0.6-0.8 at 600 nm. Out of these suspensions, actual inoculums were prepared by diluting them to an optical density of 0.1 in MH2 media. From these inoculums, 200 μL was transferred to each well, resulting in a final compound concentration range of 64 μM-31.3 nM for, K. pneumoniae, A. baumanni, and E. cloacae, and 256 μM-125 nM for E. faecalis. Plates inoculated with E. faecalis were placed inside a GasPak™ Container System with GasPak™ Campy Container System sachets. All plates were incubated at 200 rpm for 18 h under the microorganism culturing conditions mentioned above.
MIC determination. After 18 h of growth, 200 μL was transferred to a 96-well F-bottom plate. The optical density was determined by a plate reader at 600 nm, with 10 s shaking before reading. Triplicate measurements were averaged, and a growth curve was plotted in Excel. The first column in which the growth reached half the value of maximum growth was determined as the MIC50 value for that particular compound.
MIC50. The MIC50 of a compound was assigned at which the bacterial growth reached half the value of maximum growth.

[1] = Enterococcus faecalis, DSM2570, read-out: MIC 50

Row | SMILES | MIC50 [µM] | MIC50 [1] [µM]
1 | NCC[C@H](O)C(=O)N[C@@H]1C[C@H](N)[C@@H](O[C@H]2O[C@H](CN)[C@@H](O)[C@@H](O)[C@H]2O)[C@H](O)[C@H]1O[C@H]1O[C@H](CO)[C@@H](O)[C@H](N)[C@H]1O [ABX3002, 3′Epi-KanaA-AHB] | 128 (≈ 75 µg/mL) | 
2 | N=C(N)NC1[C@@H](O)C(OC2[C@@H](F)[C@H](O[C@H]3OC(CN)[C@@H](O)[C@H](O)C3O)C(N)C[C@H]2NC(=O)[C@@H](O)CCN)O[C@H](CO)[C@H]1O (stereo partly drawn) [ABX3003, 3′epi-KanaA-AHB-F-Gua] |  | 64 (≈ 40.3 µg/mL)
3 | NCCC(O)C(=O)NC1CC(N)C(OC2OC(CN)C(O)C(O)C2O)C(F)C1OC1OC(CO)C(O)C(N)C1O (stereo not drawn) [ABX3005, 3′Epi-KanaA-AHB-F] | 64 (≈ 37.6 µg/mL) | 
4 | NCCC(O)C(=O)NC1CC(N)C(OC2OC(CN)C(O)C(O)C2N)C(O)C1OC1OC(CO)C(O)C(N)C1O (centres unmarked) [ABX4001, KanaB-AHB] | 32 to 64 | 
5 | NCC[C@H](O)C(=O)N[C@@H]1CC(N)[C@@H](O[C@H]2OC(CN)[C@@H](O)[C@@H](O)C2N)[C@H](O)C1OC1O[C@H](CO)[C@@H](O)C(N)[C@H]1O (stereo partly drawn) [ABX4002, 3′Epi-KanaB-AHB] | 16 to 32 | 
6 | NCC[C@H](O)C(=O)N[C@@H]1CC(N)[C@@H](O[C@H]2OC(CN)[C@@H](O)[C@@H](O)C2N)[C@H](F)C1OC1O[C@H](CO)[C@@H](O)C(N)[C@H]1O (stereo partly drawn) [ABX4003, 3′Epi-KanaB-AHB-F] | 64 (≈ 37.5 µg/mL) | 
7 | N=C(N)NC1[C@@H](O)C(OC2[C@@H](F)[C@H](O[C@H]3OC(CN)[C@@H](O)[C@H](O)C3N)C(N)C[C@H]2NC(=O)[C@@H](O)CCN)O[C@H](CO)[C@H]1O (stereo partly drawn) [ABX4004, 3′epi-KanaB-AHB-F-Gua] | 16 to 32 | 
8 | N=C(N)N[C@@H]1[C@@H](O)[C@@H](O[C@@H]2[C@@H](O)[C@H](O[C@H]3O[C@H](CN)[C@@H](O)[C@@H](O)[C@H]3N)[C@@H](N)C[C@H]2NC(=O)[C@@H](O)CCN)O[C@H](CO)[C@H]1O [ABX4005, 3′Epi-KanaB-AHB-Gua] | 32 to 64 | 
9 | N=C(N)NC1[C@@H](O)C(OC2[C@@H](F)[C@H](O[C@H]3OC(CN)[C@@H](O)[C@H](O)C3N)C(N)C[C@H]2NC(=O)[C@@H](O)CCN)O[C@H](CO)[C@H]1O (some centres unmarked) [ABX4006, KanaB-AHB-F-Gua] |  | 16 to 32 (≈ 10.1 to 20.1 µg/mL)
10 | NCCC(O)C(=O)NC1CC(N)C(OC2OC(CN)C(O)C(O)C2N)C(F)C1OC1OC(CO)C(O)C(N)C1O (centres unmarked) [ABX4007, KanaB-AHB-F] | 32 to 64 | 
11 | N=C(N)NC1[C@@H](O)C(OC2[C@@H](O)[C@H](O[C@H]3OC(CN)[C@@H](O)[C@H](O)C3N)C(N)C[C@H]2NC(=O)[C@@H](O)CCN)O[C@H](CO)[C@H]1O (some centres unmarked) [ABX4009, KanaB-AHB-Gua] | 64 to 128 | 
12 | NCC[C@H](O)C(=O)N[C@@H]1CC(N)[C@@H](O[C@H]2OC(CN)[C@@H](O)CC2N)[C@H](O)C1OC1O[C@H](CO)[C@@H](O)C(N)[C@H]1O (some centres unmarked) [ABX5004, Tobra-AHB] | 32 (≈ 18.2 µg/mL) | 
13 | N=C(N)NC1[C@@H](O)C(OC2[C@@H](O)[C@H](O[C@H]3OC(CN)[C@@H](O)CC3N)C(N)C[C@H]2NC(=O)[C@@H](O)CCN)O[C@H](CO)[C@H]1O (some centres unmarked) [ABX5005, Tobra-AHB-Gua] | 16 (≈ 9.77 µg/mL) | 
14 | N=C(N)NC1C(O)[C@@H](CO)OC(OC2C(F)[C@H](O[C@H]3OC(CN)[C@@H](O)CC3N)C(N)C[C@H]2NC(=O)[C@@H](O)CCN)[C@@H]1O (some centres unmarked) [ABX5006, Tobra-AHB-F-Gua] |  | 4 to 8 (≈ 2.45 to 4.9 µg/mL)
15 | N=C(NCCN)NC1C(O)[C@@H](CO)OC(OC2C(F)[C@H](O[C@H]3OC(CN)[C@@H](O)CC3N)C(N)C[C@H]2NC(=O)[C@@H](O)CCN)[C@@H]1O (some centres unmarked) [ABX5020, Tobra-AHB-F-Gua-2-amino-ethyl] |  | 4 to 8 (≈ 2.62 to 5.25 µg/mL)
16 | NCC[C@H](O)C(=O)N[C@@H]1CC(N)[C@@H](O[C@H]2OC(CN)[C@@H](O)CC2N)[C@H](F)C1OC1O[C@H](CO)[C@@H](O)C(N)[C@H]1O (some centres unmarked) [ABX5024, Tobra-AHB-F] | 16 to 32 | 
17 | CC(C)(C)CCNC(=N)NC1[C@@H](O)C(OC2[C@@H](F)[C@H](O[C@H]3OC(CN)[C@@H](O)CC3N)C(N)C[C@H]2NC(=O)[C@@H](O)CCN)O[C@H](CO)[C@H]1O (some centres unmarked) [ABX5025, Tobra-AHB-F-Gua 2-tBu-ethyl] |  | 16 (≈ 11.1 µg/mL)
